Literature values in patent US20250195440A1, “PHARMACEUTICAL FORMULATION COMPRISING GLUCOKINASE ACTIVATOR AND USE THEREOF” (Hua Medicine USA Inc., priority 2023, published 2025).

Key:
[1] = test system: glucose-stimulated GLP-1 secretion; conditions: patients with type II diabetes and obesity; Dorzagliatin alone
[2] = test system: esterase enzymes in gastrointestinal tract; conditions: with esterase enzymes in gastrointestinal tract

Row | Conversion into active Dorzagliatin [2] | Structure (SMILES) | Impaired glucose-stimulated GLP-1 secretion [1]
1 |  | CC(C)C[C@@H](C(=O)Nc1ccn(C[C@@H](O)CO)n1)N1CC(Oc2ccccc2Cl)=CC1=O [Dorzagliatin, (S)-2-[4-(2-chloro-phenoxy)-2-oxo-2,5-dihydro-pyrrol-1-yl]-4-methyl-pentanoic acid [1-((R)-2,3-dihydroxy-propyl)-1H-pyrazol-3-yl]-amide] | improved
2 | quickly and completely converted | CC(C)C[C@@H](C(=O)Nc1ccn(C[C@@H](O)COC(=O)c2cccnc2)n1)N1CC(Oc2ccccc2Cl)=CC1=O [compound of formula (I)] | 
